Results published in patent US11773071B2, “Benzothiazepine compounds and their use as bile acid modulators” (Albireo AB, priority 2019, dated 2023).

What was measured:
[1] = Bidirectional permeability assay (Caco-2 cells); assay type: in vitro ADME; conditions: human, Caco-2, absorptive direction (A2B), 10 μM in FaSSIF buffer
Protocol: (§1) Bidirectional Permeability Assay (Caco-2 Cells)
(§2) Caco-2 cells (Evotec) were seeded at a density of 70,000 cells/well in Millicell® 24-well cell culture insert plates and maintained in an incubator (37° C., 5% CO2, 95% RH) for 21 days with media change on alternate days.
(§3) Stock solutions (10 mM) of the test compounds, atenolol (low permeability marker), propranolol (high permeability marker) and digoxin (substrate for P-gp transport pathway) were prepared in dimethylsulfoxide (DMSO). An intermediate stock solution (1 mM) was prepared by diluting 10 μL of 10 mM master stock solution with 90 μL of neat DMSO. A working stock solution (10 μM) was prepared by diluting 50 μL of 1 mM with 4950 μL of FaSSIF buffer. Post addition of compounds to the FaSSIF, samples were subjected to sonication for 2 hours, and centrifuged at 4000 RPM for 30 minutes at 37° C. The 4 mL of resultant supernatant was directly used in the assay. The final DMSO concentration in the transport experiments was 1%.
(§4) On the day of assay, Caco-2 monolayers were washed twice with transport buffer (HBSS, pH 7.4) and pre-incubated for 30 min (37° C., 5% CO2, 95% RH) in an incubator. The electrical resistance of the monolayers was measured with a Millicell®—ERS system. Monolayers with trans-epithelial electrical resistance (TEER) values greater than 350 ohm·cm^2 were selected for the assay.
(§5) The assay was conducted in absorptive direction (A2B) and secretory (B2A) directions. Transport experiments were initiated by addition of transport assay buffer (FaSSIF buffer prepared in HBSS) consisting of compounds to the donor compartment (apical chamber A-B; basolateral chamber B-A) in duplicate (n=2) wells. Drug free HBSS buffer (pH 7.4) containing 1% bovine serum albumin (BSA) was introduced to the receiver (A-B-basolateral; B-A-Apical) compartments. The volumes of apical and basolateral compartments were 0.4 and 0.8 mL, respectively. After adding dosing solution, plates were incubated in an incubator for 120 minutes at 37° C. After 120 minutes, donor and receiver samples were collected and matrix matched (1:1, 30 μL study sample+30 μL blank buffer) with the opposite buffer. Dosing samples matrix matched (1:1, 30 μL study sample+30 μL blank buffer) with the opposite buffer. Samples were processed by adding acetonitrile containing internal standard (60 μL study sample+200 μL acetonitrile containing internal standard—Tolbutamide, 500 ng/mL). Samples were vortexed and centrifuged at 4000 rpm for 10 minutes. The obtained supernatant (100 μL) was diluted with 100 μL of water and transferred to fresh 96 well plates. The concentration of compounds in the samples was analyzed by liquid chromatography tandem mass spectrometry (LC-MS/MS) method using discovery grade bio-analytical method, as applicable.
(§6) The mean apparent permeability (Papp,×10^−6 cm/sec) of the test compounds, atenolol, propranolol and digoxin were calculated as follows:
(§7) [formula] where dq/dt=rate of transport (rate of transport of compound in the receiver compartment), C0=initial concentration in the donor compartment, A=surface area of the effective filter membrane.

[2] = Bioavailability studies; assay type: in vivo, mice; conditions: male, mouse, plasma, intravenous 1 mg/kg, oral 10 mg/kg
Protocol: Male mice (C57BL/6 or CD1) or Wistar rats of 8-9 weeks old were used. For each test compound, two groups of 3 animals each were used. One group was administered a single intravenous dose of 1 mg/kg (vehicle 100% DMSO) through the tail vein and the other group was administered a single oral dose of 10 mg/kg through gavage needle. The group that was administered an oral dose was fasted overnight. Blood samples were collected after 0.083, 0.25, 0.5, 1, 2, 4, 6, 8 and 24 hours following intravenous administration, and after 0.25, 0.5, 1, 2, 4, 6, 8 and 24 hours following oral administration. Blood samples were taken from saphenous vein. 0.2% EDTA was used as the anticoagulant. The samples were analyzed by a discovery grade bioanalytical method developed for the estimation of test compound in plasma, using an LC-MS/MS system.

[3] = test system: Caco-2 cells; assay: Bidirectional permeability assay (Caco-2 cells); assay type: in vitro ADME; conditions: absorptive direction (A2B); 10 μM in FaSSIF buffer; 120 minutes
Protocol: as §1, §2, §3, §4, §5, §6, §7

Structure (SMILES) | Papp A→B at 120 min, 10 μM [1] | also measured
CCCCC1(CC)CN(c2ccccc2)c2cc(SC)c(OCC(C)(O)C(=O)O)cc2S(=O)(=O)C1 (single isomer, unassigned) [48, diastereomer 2] | 3.2 ×10⁻⁶ cm/s | 
CCCCC1(CC)CN(c2ccccc2)c2cc(Br)c(OCCC(=O)O)cc2S(=O)(=O)C1 (single isomer, unassigned) [Example 2, 3-((7-bromo-3-butyl-3-ethyl-1,1-dioxido-5-phenyl-2,3,4,5-tetrahydro-1,5-benzothiazepin-8-yl)oxy)propanoic acid] | 3.4 ×10⁻⁶ cm/s | bioavailability ([2]; C57BL/6 mice): 104%
CCCCC1(CCCC)CN(c2ccccc2)c2cc(SC)c(OCC(O)C(=O)O)cc2S(=O)(=O)C1 (racemic) [Example 9, 3-((3,3-Dibutyl-7-(methylthio)-1,1-dioxido-5-phenyl-2,3,4,5-tetrahydro-1,5-benzothiazepin-8-yl)oxy)-2-hydroxypropanoic acid] | 1.6 ×10⁻⁶ cm/s | 
CCCCC1(CCCC)CN(c2ccccc2)c2cc(Br)c(OCCC(=O)O)cc2S(=O)(=O)C1 [Example 4, 3-((7-Bromo-3,3-dibutyl-1,1-dioxido-5-phenyl-2,3,4,5-tetrahydro-1,5-benzothiazepin-8-yl)oxy)propanoic acid] | 2.2 ×10⁻⁶ cm/s | 
CCCCC1(CC)CN(c2ccccc2)c2cc(SC)c(OCC(C)(F)C(=O)O)cc2S(=O)(=O)C1 (single isomer, unassigned) [35, diastereomer 1] | 4 ×10⁻⁶ cm/s | bioavailability ([2]; CD1 mice): 8%
CCCCC1(CC)CN(c2ccccc2)c2cc(Cl)c(OC(C)CC(=O)O)cc2S(=O)(=O)C1 (single isomer, unassigned) [30, diastereomer 1] | 9 ×10⁻⁶ cm/s | 
CCCCC1(C)CN(c2ccccc2)c2cc(N(C)C)c(OCCC(=O)O)cc2S(=O)(=O)C1 (single isomer, unassigned) [29, enantiomer 1] | 20.5 ×10⁻⁶ cm/s | 
CCCCC1(CCCC)CN(c2ccccc2)c2cc(SC)c(OCC(O)C(=O)O)cc2S(=O)(=O)C1 (single isomer, unassigned) [Example 10, 3-((3,3-dibutyl-7-(methylthio)-1,1-dioxido-5-phenyl-2,3,4,5-tetrahydro-1,5-benzothiazepin-8-yl)oxy)-2-hydroxypropanoic acid] | 2.1 ×10⁻⁶ cm/s | bioavailability ([2]; C57BL/6 mice): 13%
CCCCC1(CC)CN(c2ccccc2)c2cc(Cl)c(OCCC(=O)O)cc2S(=O)(=O)C1 (single isomer, unassigned) [Example 6, 3-((3-butyl-7-chloro-3-ethyl-1,1-dioxido-5-phenyl-2,3,4,5-tetrahydro-1,5-benzothiazepin-8-yl)oxy)propanoic acid] | 13.6 ×10⁻⁶ cm/s | 
CCCCC1(CCCC)CN(c2ccccc2)c2cc(SC)c(OCC(O)C(=O)O)cc2S(=O)(=O)C1 (single isomer, unassigned) [Example 11, 3-((3,3-dibutyl-7-(methylthio)-1,1-dioxido-5-phenyl-2,3,4,5-tetrahydro-1,5-benzothiazepin-8-yl)oxy)-2-hydroxypropanoic acid] |  | Permeability (Caco-2) Papp A2B [3]: 1.5 ×10⁻⁶ cm/s
CCCCC1(CC)CN(c2ccccc2)c2cc(SC)c(OCC(C)(F)C(=O)O)cc2S(=O)(=O)C1 (centres unmarked) [Example 34, 3-((3-butyl-3-ethyl-7-(methylthio)-1,1-dioxido-5-phenyl-2,3,4,5-tetrahydro-1,5-benzothiazepin-8-yl)oxy)-2-fluoro-2-methylpropanoic acid] | 5.4 ×10⁻⁶ cm/s | 

Now from value to molecule, other results behind:

Papp A→B at 120 min, 10 μM [1] | Structure (SMILES) | also measured
22.5 ×10⁻⁶ cm/s | CCCCC1(C)CN(c2ccccc2)c2cc(SC)c(OCCC(=O)O)cc2S(=O)(=O)C1 (single isomer, unassigned) [Example 24, 3-((3-butyl-3-methyl-7-(methylthio)-1,1-dioxido-5-phenyl-2,3,4,5-tetrahydro-1,5-benzothiazepin-8-yl)oxy)propanoic acid] | 
9.7 ×10⁻⁶ cm/s | CCCCC1(CCCC)CN(c2ccccc2)c2cc(SC)c(OCCC(=O)O)cc2S(=O)(=O)C1 [Example 15, 3-((3,3-dibutyl-7-(methylthio)-1,1-dioxido-5-phenyl-2,3,4,5-tetrahydro-1,5-benzothiazepin-8-yl)oxy)propanoic acid] | 
13.4 ×10⁻⁶ cm/s | CCCCC1(CC)CN(c2ccccc2)c2cc(Br)c(OCCC(=O)O)cc2S(=O)(=O)C1 (racemic) [Example 1, 3-((7-Bromo-3-butyl-3-ethyl-1,1-dioxido-5-phenyl-2,3,4,5-tetrahydro-1,5-benzothiazepin-8-yl)oxy)propanoic acid] | 
10.3 ×10⁻⁶ cm/s | CCCCC1(CC)CN(c2ccccc2)c2cc(SC)c(OCCC(=O)O)cc2S(=O)(=O)C1 (single isomer, unassigned) [Example 13, 3-((3-butyl-3-ethyl-7-(methylthio)-1,1-dioxido-5-phenyl-2,3,4,5-tetrahydro-1,5-benzothiazepin-8-yl)oxy)propanoic acid] | bioavailability ([2]; CD1 mice): 102%
3.3 ×10⁻⁶ cm/s | CCCCC1(C)CN(c2ccccc2)c2cc(SC)c(OCC(O)C(=O)O)cc2S(=O)(=O)C1 (single isomer, unassigned) [32, diastereomer 1] | 
